Test results published in article PMC8786932, “Bicyclic azetidines target acute and chronic stages of Toxoplasma gondii by inhibiting parasite phenylalanyl t-RNA synthetase” (Nature Communications, 2022).

How the values were obtained:
[1] = system: T. gondii residual infection; experiment: ELISA of survivors and bioassay of brain homogenate into naive recipient mice; assay type: in vivo, Ifngr1-/- mice
Experimental: Testing of compounds to prevent reactivation of chronic infection was […] to test the efficacy of PheRS inhibitors against chronic infection. In both cases, male and female C57BL/6 Ifngr1^−/− mice were infected by oral gavage with 5 cysts of the ME49-Fluc strain isolated from chronically infected CBA/J mice. Compound BRD7929 was formulated at 1 mg/mL in freshly prepared compound resuspension buffer (vehicle; 10% ETOH, 4% Tween-80 in 1xPBS), aliquoted for single use and stored at −20 °C. In the first protocol, at 48 h post-infection, animals were given sulfadiazine (0.25 g/L in drinking water) for 20 days post-infection to prevent death during acute infection and to allow establishment of chronic infection. Two days after completion of the sulfadiazine treatment, one cohort of mice were treated once a day with 10 mg/kg BRD7929 by oral gavage for 16 days and control mice received an equal volume of vehicle during the same time frame. Animals were monitored for survival and weight loss for 30 days post-treatment. […] All mice were monitored for survival and weight loss every two days for the duration of treatment and for an additional >20 days post-treatment. […] Recipient mice were monitored for 20 days for survival, weight loss, and seroconversion by ELISA.

[2] = system: HFF (primary human foreskin fibroblast); experiment: in vitro; assay type: cell-based; conditions: EC50 host cell/EC50 T. gondii
Experimental: For the toxicity screen, compounds were tested in 96-well plates using all the wells as no edge affect was observed. Compounds were diluted to 40 μM (2x concentration in 10% DMEM, 0.4% DMSO) before step-wise, 3-fold dilution in 10% DMEM to create 10-dose series (20 μM to 0.001 μM). Host cells were plated in black, μ-Clear 96-well plates (Greiner Bio-One). We compared several lineages including HepG2 (human hepatocellular carcinoma (ATCC-HB-8065)), THP-1 (human monocytic tumor line), SH-SY5Y (human neuroblastoma (ATCC CRL-2266)), A549 (human lung carcinoma (ATCC CRM-CCL-185)) and Caco-2 (human intestinal adenocarcinoma (ATCC HTB-37)) and HFF (primary human foreskin fibroblast) obtained from the laboratory of John Boothroyd at Stanford University. Cells were maintained in culture media according to the formulations recommended by ATCC. Cells were plated at a density (ranging from of 5 × 10^3 to 2 × 10^4 cells/well (100 μL vol)) resulting in sub-confluent monolayers to allow expansion during the 2 day growth assay. THP-1 cells were treated with 10 ng/ml phorbol 12-myristate 13-acetate (PMA) for 24 h to differentiate into macrophages before compound addition. For all other cells, compounds were added at 6 h post seeding to host cells containing plates (200 μL final volume, 0.2% DMSO) and incubated in culture medium at 37 °C supplemented with 5% CO2. At 44 h post compound addition (50 h total growth time), culture media was aspirated and replaced with Live Imaging solution (ThermoFisher) supplemented with 10 μg/mL Hoeschst 33342 (Sigma) for 20 min at 37 °C. […] Alternatively, plates fixed with 4% formaldehyde for 10 min and stained with 10 μg/mL Hoeschst 33342 (Sigma) for 20 min and imaged using a Cytation 3 multi-mode imager (DAPI, 10x objective, 4 images/well) and nuclei quantified using the Gen5 imager software (v3.08). Assays were repeated with two technical replicates within each of two independent biological replicates.
All statistical analyses were conducted using Prism 9 (GraphPad Software, Inc.). Dose–response inhibition curves for parasite and host cell toxicity screens (EC50 values) were generated using (Log(inhibitor) vs. normalized response—Variable slope) function. […] For multiple comparisons, two-way ANOVA analysis function using either Sidák’s multiple comparisons test or Dunnett’s multiple comparisons test was applied as indicated.

| Compound | bioassay of brains of surviving treated mice in naive recipients ([1]; oral challenge model survivors, recipients monitored 20 days) | bioassay of brain homogenate of the surviving animal ([1]; reactivation model survivor) | HFF fold selectivity [2] [fold] |
| --- | --- | --- | --- |
| COc1ccc(NC(=O)N2CCCCN3[C@H](CN(C)C)[C@H](c4ccc(C#Cc5ccccc5)cc4)[C@@H]3C2)cc1 [BRD7929] | All recipient mice survived and remained seronegative | failed to detect any residual infection | – |
| COc1ccc(NC(=O)N2CCCCN3[C@H](CN(C)S(C)(=O)=O)[C@H](c4ccc(C#Cc5ccccc5)cc4)[C@@H]3C2)cc1 [BRD8494] | – | – | 571.4 |
